US20180279622A1, “1-AMINO-1-CYCLOPROPANECARBOXYLIC ACID FORMULATIONS” (Valent BioSciences LLC, priority 2017, published 2018)
Like-named read-outs stand apart in the source and are kept apart here.

Experiments:
[1] = ACC precipitation and crystallization tests; format: physicochemical
[2] = Color change inhibition (Gardner Color Scale); format: physicochemical; settings: for Color (Gardner Scale): 54° C. for two weeks
Description: Specifically, the color changed from clear or a 1 on the Gardner Scale to a yellow color of 4-5 on the Gardener Scale. See ASTM D1544-04(2010), Standard Test Method for Color of Transparent Liquids (Gardner Color Scale), ASTM International, West Conshohocken, Pa., 2010, www.astm.org for explanation of the Gardner scale. To overcome this problem several methods were tested including lowering the pH to 4.0, packaging under nitrogen gas blanket, adding specific salts, chelating agents, antioxidants or preservatives.

[3] = ACC precipitation and crystallization tests; format: physicochemical; remark: listed apart in the source
Description: To overcome this problem, salts were added individually to 10% w/w ACC aqueous solutions. These solutions were stored at room temperature and analyzed for precipitate formation.

cotton cotyledons = test: Cotton cotyledon bioefficacy assay (headspace ethylene evolution); format: in vivo
Description: The solutions were amended with 0.05% (v/v) of a non-ionic surfactant and spray applied to the adaxial surface of 10-day old cotton cotyledons using a track sprayer. In addition to ACC-containing solutions, appropriate controls were tested. Two days (48 hours) after spray application, the cotyledons from each plant were removed, weighed and incubated in sealed glass vials for 4 to 7 hours. Headspace ethylene evolution by the cotyledons was measured by gas chromatography using standard methods. The assay from Example 5, above, was repeated with a formulation containing 0.2% w/w EDTA.

Gala apple trees = test: Apple thinning; format: in vivo; settings: foliar spray at 18 to 20 mm mean fruit diameter
Description: The formula from Example 8, above, was diluted to prepare 200 and 400 ppm ACC solutions. These solutions were applied as a foliar spray to Gala apple trees grown at three separate locations when the mean fruit diameter was from 18 to 20 millimeters. […] Thinning activity is expressed as the number of fruit set per 100 flower clusters after the completion of natural fruit drop.

[4] = salt added to 10% w/w ACC aqueous solution, 5° C. overnight
[5] = additive 0.2 % w/w in 10% ACC, 10% calcium chloride, Kathon CG/ICP formulation
[6] = salt added to 10% w/w ACC aqueous solution, stored at room temperature

In the case of [Cl-].[Cl-].[Mg+2] [MgCl2], the “Precipitation (5° C.)” value [1, 4] is reported as “YES”.

In the case of O=C(O)/C=C/C(=O)O [Fumaric acid], the “Color (Gardner Scale)” value [2, 5] is reported as 4-5.

For [Ba+2].[Cl-].[Cl-] [BaCl2], the “Precipitation (5° C.)” value [1, 4] was “YES”.

For O=S(=O)([O-])[O-].O=S(=O)([O-])[O-].O=S(=O)([O-])[O-].[Al+3].[Al+3] [Al2(SO4)3], the “Precipitation (room temperature)” value [3, 6] was “YES” and the “Precipitation (5° C.)” value [1, 4] was “YES”.

For Cl.N [NH4Cl], the “Precipitation (room temperature)” value [3, 6] was “YES” and the “Precipitation (5° C.)” value [1, 4] was “YES”.

In the case of O=C([O-])CC(O)(CC(=O)[O-])C(=O)[O-].[Na+].[Na+].[Na+] [Sodium citrate], the “Color (Gardner Scale)” value [2, 5] is reported as 4-5.

In the case of O=C(O)CN(CCN(CC(=O)O)CC(=O)O)CC(=O)O [EDTA, ethylenediaminetetraacetic acid], the Gardner scale score ([2]; EDTA at 0.1% or 0.2% w/w, 2 weeks at 54° C.) is reported as no more than 2, the “Gardner scale score” value ([2]; EDTA at 0.1% or 0.2% w/w, 2 weeks plus 6 additional weeks at 54° C.) is reported as 1-2 and the “Color maintenance versus pH” value ([2]; EDTA at 0.1% or 0.2% w/w, pH 4.0) is reported as “best results”. For the same compound, the “Time clear color maintained” value ([2]; EDTA at 0.1% or 0.2% w/w, pH 5.2, 54° C.) was “at least 4 weeks”, the “Color (Gardner Scale)” value ([2]; additive 0.1 % w/w) was 1-2 and the “Color (Gardner Scale)” value ([2]; additive 0.5 % w/w) was 1-2.

With [Ca+2].[Cl-].[Cl-] [CaCl2, calcium chloride] the Ethylene (cotton cotyledons; CaCl2 550 ppm, molar ratio ACC:CaCl2 0:1, 48 hours after spray) was 1.49 nL/gFW/hr.

With O=[N+]([O-])[O-].O=[N+]([O-])[O-].[Ca+2] [Ca(NO3)2] the “Precipitation (5° C.)” value [1, 4] was “YES”.

For [Cl-].[K+] [KCl], the “Precipitation (room temperature)” value [3, 6] was “YES” and the “Precipitation (5° C.)” value [1, 4] was “YES”.

For O=C([O-])CC(O)(CC(=O)[O-])C(=O)[O-].[Fe+3] [Iron(III) citrate hydrate], the “Precipitation (room temperature)” value [3, 6] was “YES” and the “Precipitation (5° C.)” value [1, 4] was “YES”.

In the case of O=C1O[C@H]([C@@H](O)CO)C(O)=C1O [Ascorbic acid], the “Color (Gardner Scale)” value [2, 5] is reported as greater than 18.

For O=S(=O)([O-])[O-].[Ca+2] [CaSO4], the “Precipitation (room temperature)” value [3, 6] was “YES” and the “Precipitation (5° C.)” value [1, 4] was “YES”.

In the case of N.O=[N+]([O-])O [NH4NO3], the “Precipitation (room temperature)” value [3] is reported as “YES” and the “Precipitation (5° C.)” value [1] is reported as “YES”.

With O=[N+]([O-])[O-].[Ag+] [AgNO3] the “Precipitation (room temperature)” value [3, 6] was “YES” and the “Precipitation (5° C.)” value [1, 4] was “YES”.

In the case of O=[N+]([O-])[O-].[K+] [KNO3], the “Precipitation (room temperature)” value [3, 6] is reported as “YES” and the “Precipitation (5° C.)” value [1, 4] is reported as “YES”.

With CC(O)C(=O)[O-].CC(O)C(=O)[O-].O.O.O.O.O.[Ca+2] (stereo not drawn) [(CH3CH(OH)COO)2Ca•5H2O] the “Precipitation (room temperature)” value [3, 6] was “YES” and the “Precipitation (5° C.)” value [1, 4] was “YES”.

In the case of Cl [2N hydrochloric acid, hydrochloric acid], the “Color (Gardner Scale)” value ([2]; additive 0.6-0.9 % w/w) is reported as 3-4.

In the case of CC(=O)[O-].[Na+] [Sodium acetate], the “Color (Gardner Scale)” value [2, 5] is reported as 4-5.

With NC1(C(=O)O)CC1 [ACC, 1-amino-1-cyclopropanecarboxylic acid] the Precipitation ([3]; 10% w/w ACC free acid in water, no salt, room temperature and/or 5° C.) was “precipitate”, the Ethylene (cotton cotyledons; ACC 500 ppm, molar ratio 1:0, 48 hours after spray) was 39.80 nL/gFW/hr and the Ethylene (cotton cotyledons; Example 6, ACC 500 ppm) was 27.6 nL/g FW/hr. The “Thinning Activity” value (Gala apple trees; Geneva, NY, 200 ppm ACC) was 47 fruit set per 100 flower clusters, the “Thinning Activity” value (Gala apple trees; Geneva, NY, 400 ppm ACC) was 37 fruit set per 100 flower clusters and the “Thinning Activity” value (Gala apple trees; Monitor, WA, 200 ppm ACC) was 32 fruit set per 100 flower clusters. For the same compound, the “Thinning Activity” value (Gala apple trees; Monitor, WA, 400 ppm ACC) was 10 fruit set per 100 flower clusters, the “Thinning Activity” value (Gala apple trees; Parkdale, OR, 200 ppm ACC) was 267 fruit set per 100 flower clusters and the “Thinning Activity” value (Gala apple trees; Parkdale, OR, 400 ppm ACC) was 194 fruit set per 100 flower clusters.

In the case of O=[N+]([O-])[O-].O=[N+]([O-])[O-].[Mg+2] [Mg(NO3)2], the “Precipitation (5° C.)” value [1, 4] is reported as “YES”.

With O=C(O)CC(O)(CC(=O)O)C(=O)O [Citric acid] the “Color (Gardner Scale)” value [2, 5] was 4-5.

In the case of NC(N)=O [Urea], the “Color (Gardner Scale)” value [2, 5] is reported as 5-6.
